# Measurements taken from patent US11986532B2 (Arvinas Operations, Inc., priority 2021, dated 2024).
# Read-outs that look alike come from different tables or passages of the source.
# Target: T1, BCL6 (Homo sapiens, UniProt P41182)
# T1 construct: endogenous in cells; host or cells: T47D breast cancer epithelial cells
# Assay: Immunofluorescence protocol for high content imaging of BCL6 (degradation) in T47D cells, 3 days compound treatment
# Assay type: cell-based
# Conditions: for Dmax: read-out: Mean Dmax (%)** category; for DC50: read-out: Mean DC50 (nM)* category
# Procedure, shortened: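 T47D, RPMI1640/10% FBS; cpd 11-pt 3-fold, top 0.1 or 1 μM final; 3 d, 37° C. Fix 4% PFA, perm 0.1% Triton, block 3% BSA; anti-BCL6 1:300 o/n 4° C; Alexa-488 2°, CellMask-647, Hoechst. Imaged 10×, 4 fields/well.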
# [1] = T47D cells, 3 days compound treatment
Dmax (T47D) [%],DC50 [nM],DC50 [1] [nM],Dmax [1] [%],Structure (SMILES)
50 to 70,< 10,,,"CNC(=O)COc1cc2cc(Nc3nc(N4CCC(OC5CCC6(CC5)CN(c5c(OC)ccc7c5CN(C5CCC(=O)NC5=O)C7=O)C6)CC4)ncc3Cl)ccc2n(C(C)C)c1=O (centres unmarked) [Compound 300, 2-{[6-({5-chloro-2-[4-({2-[2-(2,6-dioxopiperidin-3-yl)-5-methoxy-1-oxo-2,3-dihydro-1H-isoindol-4-yl]-2-azaspiro[3.5]nonan-7-yl}oxy)piperidin-1-yl]pyrimidin-4-yl}amino)-2-oxo-1-(propan-2-yl)-1,2-dihydroquinolin-3-yl]oxy}-N-methylacetamide]"
,,< 10,< 50,"CNC(=O)COc1cc2cc(Nc3nc(N4CCN(CC5CCN(c6ccc7c(c6F)CN(C6CCC(=O)NC6=O)C7=O)CC5)CC4)ncc3Cl)ccc2n(C(C)C)c1=O (centres unmarked) [Compound 25, 2-{[6-({5-chloro-2-[4-({1-[2-(2,6-dioxopiperidin-3-yl)-4-fluoro-1-oxo-2,3-dihydro-1H-isoindol-5-yl]piperidin-4-yl}methyl)piperazin-1-yl]pyrimidin-4-yl}amino)-2-oxo-1-(propan-2-yl)-1,2-dihydroquinolin-3-yl]oxy}-N-methylacetamide]"
,,< 10,≥ 70,CNC(=O)COc1cc2cc(Nc3nc(N4CCC(O[C@H]5C[C@H](N6CCC(c7ccc8c(c7C)CN(C7CCC(=O)NC7=O)C8=O)CC6)C5)CC4)ncc3Cl)ccc2n(C(C)C)c1=O (some centres unmarked) [Compound 197]
,,< 10,50 to 70,"CNC(=O)COc1cc2cc(Nc3nc(N4CCC(CN5CCC6(CCN(c7ccc8c(c7)CN(C7CCC(=O)NC7=O)C8=O)C6)C5=O)CC4)ncc3Cl)ccc2n(C(C)C)c1=O (centres unmarked) [Compound 60, 2-{[6-({5-chloro-2-[4-({7-[2-(2,6-dioxopiperidin-3-yl)-1-oxo-2,3-dihydro-1H-isoindol-5-yl]-1-oxo-2,7-diazaspiro[4.4]nonan-2-yl}methyl)piperidin-1-yl]pyrimidin-4-yl}amino)-2-oxo-1-(propan-2-yl)-1,2-dihydroquinolin-3-yl]oxy}-N-methylacetamide]"
50 to 70,< 10,,,"CNC(=O)COc1cc2cc(Nc3nc(N4CCN(CC5CCC6(CC5)CN(c5ccc(F)c7c5CN(C5CCC(=O)NC5=O)C7=O)C6)CC4)ncc3Cl)ccc2n(C(C)C)c1=O (centres unmarked) [Compound 316, 2-{[6-({5-chloro-2-[4-({2-[2-(2,6-dioxopiperidin-3-yl)-7-fluoro-1-oxo-2,3-dihydro-1H-isoindol-4-yl]-2-azaspiro[3.5]nonan-7-yl}methyl)piperazin-1-yl]pyrimidin-4-yl}amino)-2-oxo-1-(propan-2-yl)-1,2-dihydroquinolin-3-yl]oxy}-N-methylacetamide]"
,,50 to 100,< 50,"CNC(=O)COc1cc2cc(Nc3nc(N4CCN(C[C@H]5C[C@H](N6CCC(c7cccc8c7C(=O)N(C7CCC(=O)NC7=O)C8=O)CC6)C5)CC4)ncc3Cl)ccc2n(C(C)C)c1=O (some centres unmarked) [Compound 24, 2-[(6-{[5-chloro-2-(4-{[(1r,3r)-3-{4-[2-(2,6-dioxopiperidin-3-yl)-1,3-dioxo-2,3-dihydro-1H-isoindol-4-yl]piperidin-1-yl}cyclobutyl]methyl}piperazin-1-yl)pyrimidin-4-yl]amino}-2-oxo-1-(propan-2-yl)-1,2-dihydroquinolin-3-yl)oxy]-N-methylacetamide]"
50 to 70,< 10,,,"CNC(=O)COc1cc2cc(Nc3nc(N4CCC(OC5CN(C6CCN(c7ccc8c(c7F)CN(C7CCC(=O)NC7=O)C8=O)CC6)C5)CC4)ncc3Cl)ccc2n(C(C)C)c1=O (centres unmarked) [Compound 260, 2-({6-[(5-chloro-2-{4-[(1-{1-[2-(2,6-dioxopiperidin-3-yl)-4-fluoro-1-oxo-2,3-dihydro-1H-isoindol-5-yl]piperidin-4-yl}azetidin-3-yl)oxy]piperidin-1-yl}pyrimidin-4-yl)amino]-2-oxo-1-(propan-2-yl)-1,2-dihydroquinolin-3-yl}oxy)-N-methylacetamide]"
,,< 10,≥ 70,"CNC(=O)COc1cc2cc(Nc3nc(N4CCC(F)(CN5CCC6(CC5)CN(c5cccc7c5C(=O)N(C5CCC(=O)NC5=O)C7=O)C6)CC4)ncc3Cl)ccc2n(C(C)C)c1=O (centres unmarked) [Compound 44, 2-{[6-({5-chloro-2-[4-({2-[2-(2,6-dioxopiperidin-3-yl)-1,3-dioxo-2,3-dihydro-1H-isoindol-4-yl]-2,7-diazaspiro [3.5]nonan-7-yl}methyl)-4-fluoropiperidin-1-yl]pyrimidin-4-yl}amino)-2-oxo-1-(propan-2-yl)-1,2-dihydroquinolin-3-yl]oxy}-N-methylacetamide]"
,,< 10,< 50,"CNC(=O)COc1cc2cc(Nc3nc(N4CCN(CC5CCN(c6cc7c(cc6OC)C(=O)N(C6CCC(=O)NC6=O)C7)CC5)CC4)ncc3Cl)ccc2n(C(C)C)c1=O (centres unmarked) [Compound 21, 2-{[6-({5-chloro-2-[4-({1-[2-(2,6-dioxopiperidin-3-yl)-6-methoxy-1-oxo-2,3-dihydro-1H-isoindol-5-yl]piperidin-4-yl}methyl)piperazin-1-yl]pyrimidin-4-yl}amino)-2-oxo-1-(propan-2-yl)-1,2-dihydroquinolin-3-yl]oxy}-N-methylacetamide]"
≥ 70,< 10,,,"CNC(=O)COc1cc2cc(Nc3nc(N4CCC(CN5CC(N6CCN(c7ccc8c(c7)CN(C7CCC(=O)NC7=O)C8=O)CC6)C5)CC4)ncc3Cl)ccc2n(C(C)C)c1=O (centres unmarked) [Compound 242, 2-({6-[(5-chloro-2-{4-[(3-{4-[2-(2,6-dioxopiperidin-3-yl)-1-oxo-2,3-dihydro-1H-isoindol-5-yl]piperazin-1-yl}azetidin-1-yl)methyl]piperidin-1-yl}pyrimidin-4-yl)amino]-2-oxo-1-(propan-2-yl)-1,2-dihydroquinolin-3-yl}oxy)-N-methylacetamide]"
,,< 10,50 to 70,"CNC(=O)COc1cc2cc(Nc3nc(N4CCC(F)(CN5CC6(CCN(c7ccc8c(c7)CN(C7CCC(=O)NC7=O)C8=O)CC6)C5)CC4)ncc3Cl)ccc2n(C(C)C)c1=O (centres unmarked) [Compound 122, 2-{[6-({5-chloro-2-[4-({7-[2-(2,6-dioxopiperidin-3-yl)-1-oxo-2,3-dihydro-1H-isoindol-5-yl]-2,7-diazaspiro[3.5]nonan-2-yl}methyl)-4-fluoropiperidin-1-yl]pyrimidin-4-yl}amino)-2-oxo-1-(propan-2-yl)-1,2-dihydroquinolin-3-yl]oxy}-N-methylacetamide]"
50 to 70,< 10,,,"CNC(=O)COc1cc2cc(Nc3nc(N4CCC(CN5CCC6(CC5)CN(c5ccc7c(c5C(C)C)CN(C5CCC(=O)NC5=O)C7=O)C6)CC4)ncc3Cl)ccc2n(C(C)C)c1=O (centres unmarked) [Compound 272, 2-{[6-({5-chloro-2-[4-({2-[2-(2,6-dioxopiperidin-3-yl)-1-oxo-4-(propan-2-yl)-2,3-dihydro-1H-isoindol-5-yl]-2,7-diazaspiro[3.5]nonan-7-yl}methyl)piperidin-1-yl]pyrimidin-4-yl}amino)-2-oxo-1-(propan-2-yl)-1,2-dihydroquinolin-3-yl]oxy}-N-methylacetamide]"

Structure (SMILES),Dmax (T47D) [%],DC50 [nM],DC50 [1] [nM],Dmax [1] [%]
"CNC(=O)COc1cc2cc(Nc3nc(N4CCC(O[C@H]5C[C@H](N6CC7(CCN(c8ccc9c(c8F)CN(C8CCC(=O)NC8=O)C9=O)C7)C6)C5)CC4)ncc3Cl)ccc2n(C(C)C)c1=O (some centres unmarked) [Compound 400, 2-({6-[(5-chloro-2-{4-[(1r,3r)-3-{6-[2-(2,6-dioxopiperidin-3-yl)-4-fluoro-1-oxo-2,3-dihydro-1H-isoindol-5-yl]-2,6-diazaspiro[3.4]octan-2-yl}cyclobutoxy]piperidin-1-yl}pyrimidin-4-yl)amino]-2-oxo-1-(propan-2-yl)-1,2-dihydroquinolin-3-yl}oxy)-N-methylacetamide]",≥ 70,< 10,,
"CNC(=O)COc1cc2cc(Nc3nc(N4CCC(O[C@H]5C[C@H](N6CCC(c7cc8c(cc7OC)C(=O)N(C7CCC(=O)NC7=O)C8=O)CC6)C5)CC4)ncc3Cl)ccc2n(C(C)C)c1=O (some centres unmarked) [Compound 160, 2-({6-[(5-chloro-2-{4-[(1r,3r)-3-{4-[2-(2,6-dioxopiperidin-3-yl)-6-methoxy-1,3-dioxo-2,3-dihydro-1H-isoindol-5-yl]piperidin-1-yl}cyclobutoxy]piperidin-1-yl}pyrimidin-4-yl)amino]-2-oxo-1-(propan-2-yl)-1,2-dihydroquinolin-3-yl}oxy)-N-methylacetamide]",,,< 10,≥ 70
"CNC(=O)COc1cc2cc(Nc3nc(N4CCC(O[C@H]5C[C@H](N6CCC(c7ccc8c(c7F)CN([C@H]7CCC(=O)NC7=O)C8=O)CC6)C5)CC4)ncc3Cl)ccc2n(C(C)C)c1=O [Compound 385, 2-({6-[(5-chloro-2-{4-[(1r,3r)-3-(4-{2-[(3S)-2,6-dioxopiperidin-3-yl]-4-fluoro-1-oxo-2,3-dihydro-1H-isoindol-5-yl}piperidin-1-yl)cyclobutoxy]piperidin-1-yl}pyrimidin-4-yl)amino]-2-oxo-1-(propan-2-yl)-1,2-dihydroquinolin-3-yl}oxy)-N-methylacetamide]",50 to 70,< 10,,
"CNC(=O)COc1cc2cc(Nc3nc(N4CCC(O[C@H]5C[C@H](N6CCC(c7c(C)cc8c(c7F)CN(C7CCC(=O)NC7=O)C8=O)CC6)C5)CC4)ncc3Cl)ccc2n(C(C)C)c1=O (some centres unmarked) [Compound 397, 2-({6-[(5-chloro-2-{4-[(1r,3r)-3-{4-[2-(2,6-dioxopiperidin-3-yl)-4-fluoro-6-methyl-1-oxo-2,3-dihydro-1H-isoindol-5-yl]piperidin-1-yl}cyclobutoxy]piperidin-1-yl}pyrimidin-4-yl)amino]-2-oxo-1-(propan-2-yl)-1,2-dihydroquinolin-3-yl}oxy)-N-methylacetamide]",≥ 70,< 10,,
